In patent US9260504B2, “N- and C-terminal substituted antagonistic analogs of GH-RH” (University of Miami, priority 2008, dated 2016):

Columns and labels:
Format in all cases: in vivo
[1] = system: PC-3 human hormone-independent prostate cancer; assay: PC3 androgen-independent prostate cancer xenografts in nude mice (Example XIV)
Procedure: Male nude mice were implanted s.c. with 3 mm^3 pieces of PC-3 human hormone-independent prostate cancer tissue on both flanks. When tumors reached a volume of approximately 50 mm^3, the mice were divided into 8 experimental groups with 8 to 10 animals in each group and received single daily injections for 28 days as follows: 1. Control (vehicle solution); 2. P-11513 2 μg/day; 3. P-11602 2 μg/day; 4. P-11602 1 μg/day; 5. P-11604 2 μg/day; 6. P-11606 2 μg/day; 7. P-11610 2 μg/day; 8. P-11610 1 μg/day.
(§1) Tumor volumes were measured once a week. The experiment was ended on day 28 by sacrificing the mice under Isoflurane anesthesia. Resulting tumors were cleaned, weighed, and snap-frozen until further analyses. Statistical analyses of the measurement results were done by two-tailed t-test, p<0.05 being considered significant.

[2] = system: Human ovarian cancer SKOV3 cells; assay: SKOV3 ovarian cancer xenografts in nude mice; details: 5 μg/day s.c.
Source text: Human ovarian cancer SKOV3 cells growing exponentially were implanted info five female nude mice by subcutaneous (s.c.) injection of 10^7 cells in both flanks. Tumors That resulted after approximately 4 weeks in donor animals were then aseptically dissected and mechanically minced. Three mm^3 pieces of tumor tissue were transplanted subcutaneously into experimental animals with a trocar needle. When tumors reached an appropriate size (approximately 50 mm^3), mice were randomly divided into […]. The first was the control group, the second group was treated with daily s.c. injections of 5 μg P-11313, the third group was treated with daily s.c. injections of 5 μg P-11604, the fourth group was treated with daily s.c. injections of 5 μg P-11610. Tumor volume (length×width×height×0.5236) was measured every week and mean tumor volumes of each group were compared by Student's t-test. The study lasted 49 days. One week after end of treatment, mice were killed under anesthesia, tumors were snap frozen and stored at −70° C.

[3] = system: HT human diffuse mixed B cell lymphoma cell line; assay: HT human diffuse mixed B cell lymphoma xenografts in nude mice; details: 5 μg/day s.c.
Procedure: The aim of this study was to find out the tumor inhibitor effect of the latest GHRH antagonists (Peptide 11602, Peptide 11604, Peptide 11606, and Peptide 11610) at the dose of 5 μg/day on HT human diffuse mixed B cell lymphoma cell line. Female nude mice were xenografted subcutaneously with approximately 3 mm^3 pieces of HT malignant tumor tissue. When tumors reached the mean volume of approximately 120 mm^3, the animals were randomly assigned into different groups. Tumor volumes and body weight were measured once a week. At the end of the experiment mice were anesthetized and sacrificed. Tumors were carefully excised, weighed and were stored at −80° C. until further investigation. Organs and tumor samples were preserved in 10% formaldehyde.

[4] = system: PC-3 human hormone-independent prostate cancer; assay: PC-3 human prostate cancer xenografts in nude mice, Experiment 4; details: for Tumor growth after 28 days (%) / Tumor growth after 46 days (%) / Inhibition (%): 2 μg/day s.c.; for Inhibitory effect on PC-3 tumors compared with reference peptide JMR-132: 2 μg/day vs JMR-132 10 μg/day, after 46 days of treatment
Procedure: Male nude mice were implanted s.c. with 3 mm^3 pieces of PC-3 human hormone-independent prostate cancer tissue on both flanks. When tumors reached a volume of approximately 50 mm^3, the mice were divided into 12 experimental groups with 8 to 10 animals in each group and received single daily injections for 28 days as follows: 1. Control (vehicle solution); 2. JMR-132 (10 μg/day s.c.); 3. Peptide 11113 (2 μg/day s.c.); 4. Peptide 11119 (2 μg/day s.c.); 5. Peptide 11209 (2 μg/day s.c.); 6. Peptide 11313 (2 μg/day s.c.); 7. Peptide 11408 (2 μg/day s.c.); 8. Peptide 11435 (2 μg/day s.c.); 9. Peptide 11457 (2 μg/day s.c.); 10. Peptide 11459 (2 μg/day s.c.); 11. Peptide 11469 (2 μg/day s.c.); 12. Peptide 11491 (2 μg/day s.c.).
as §1
All experimental details of Experiment 4 are the same as for Experiment 3, with the following difference. When tumors reached a volume of approximately 50 mm^3, the mice were divided into 11 experimental groups with 8 to 10 animals in each group and received single daily injections for 46 days as follows: 1. Control (vehicle solution); 2. JMR-132 (10 μg/day s.c.); 3. Peptide 11123 (2 μg/day s.c.); 4. Peptide 11125 (2 μg/day s.c.); 5. Peptide 11213 (2 μg/day s.c.); 6. Peptide 11433 (2 μg/day s.c.); 7. Peptide 11473 (2 μg/day s.c.); 8. Peptide 11485 (2 μg/day s.c.); 9. Peptide 11497 (2 μg/day s.c.); 10. Peptide 11499 (2 μg/day s.c.); 11. Peptide 11521 (2 μg/day s.c.). Tumor volumes were measured once a week. The experiment was ended on day 46 by sacrificing the mice under Isoflurane anesthesia. Resulting tumors were cleaned, weighed, and snap-frozen until further analyses. Statistical analyses of the measurement results were done by two-tailed t-test, p<0.05 being considered significant.

[5] = system: H460 human non-small cell lung cancer cell line; assay: H460 human non-small cell lung cancer xenografts in nude mice (Example XV); details: 5 μg/day s.c.
Source text: The aim of this study was to find out the tumor inhibitor effect of the latest GHRH antagonists (Peptide 11423, Peptide 11602, Peptide 11604, Peptide 11606) on H460 human non-small cell lung cancer cell line. Female nude mice were xenografted subcutaneously with approximately 3 mm^3 pieces of H460 human non-small cell lung cancer malignant tumor tissue. When tumors reached the mean volume of approximately 90 mm^3, the animals was randomly assigned into different groups. Tumor volumes and body weight were measured once a week. At the end of the experiment mice were anesthetized and sacrificed. Tumors were carefully excised, weighed and were stored at −80° C. until further investigation. Organs and tumor samples were preserved in 10% formaldehyde.

PhAc^0-Tyr^1, D-Arg^2, Cpa^6, Ala^8, Har^9, (Phe(F)5)^10, His^11, Orn^12, Abu^15, His^20, Orn^21, Nle^27, D-Arg^28, Har^29-Ada^30]hGH-RH(1-29)NH2 [Peptide 11610]
TUMOR GROWTH (%) ([1]; 1 μg/day, day 0 (baseline)): 100% | TUMOR GROWTH (%) ([1]; 1 μg/day, day 7): 195.49% | Tumor inhibition (%) ([1]; 1 μg/day, day 7): 40.99% | TUMOR GROWTH (%) ([1]; 1 μg/day, day 14): 302.30% | Tumor inhibition (%) ([1]; 1 μg/day, day 14): 48.84% | TUMOR GROWTH (%) ([1]; 1 μg/day, day 21): 549.94% | Tumor inhibition (%) ([1]; 1 μg/day, day 21): 53.79% | TUMOR GROWTH (%) ([1]; 1 μg/day, day 28): 740.17% | Tumor inhibition (%) ([1]; 1 μg/day, day 28): 60.15% | TUMOR GROWTH (%) ([1]; 2 μg/day, day 0 (baseline)): 100% | TUMOR GROWTH (%) ([1]; 2 μg/day, day 7): 132.24% | Tumor inhibition (%) ([1]; 2 μg/day, day 7): 60.08% | TUMOR GROWTH (%) ([1]; 2 μg/day, day 14): 289.25% | Tumor inhibition (%) ([1]; 2 μg/day, day 14): 51.05% | TUMOR GROWTH (%) ([1]; 2 μg/day, day 21): 466.31% | Tumor inhibition (%) ([1]; 2 μg/day, day 21): 60.82% | TUMOR GROWTH (%) ([1]; 2 μg/day, day 28): 631.89% | Tumor inhibition (%) ([1]; 2 μg/day, day 28): 65.98% | TU growth (%) ([2]; day 0 (baseline)): 100% | TU growth (%) ([2]; day 7): 137.44% | TU inhibition (%) ([2]; day 7): 35.89% | TU growth (%) ([2]; day 14): 150.1% | TU inhibition (%) ([2]; day 14): 46.44% | TU growth (%) ([2]; day 21): 239.14% | TU inhibition (%) ([2]; day 21): 56.00% | TU growth (%) ([2]; day 28): 204.07% | TU inhibition (%) ([2]; day 28): 75.76% | TU growth (%) ([2]; day 35): 242.05% | TU inhibition (%) ([2]; day 35): 72.89% | TU growth (%) ([2]; day 42): 273.83% | TU inhibition (%) ([2]; day 42): 77.85% | TU growth (%) ([2]; day 49): 383.93% | TU inhibition (%) ([2]; day 49): 69.82% | TUMOR GROWTH (%) ([3]; day 1 (baseline)): 100% | Tumor inhibition (%) ([3]; day 1 (baseline)): 0% | Tumor volume (mm^3) ([3]; day 1 (baseline)): 90.42 mm^3 | TUMOR GROWTH (%) ([3]; day 7): 183.36% | Tumor inhibition (%) ([3]; day 7): 40.01% | Tumor volume (mm^3) ([3]; day 7): 145.53 mm^3 | TUMOR GROWTH (%) ([3]; day 14): 307.98% | Tumor inhibition (%) ([3]; day 14): 36.21% | Tumor volume (mm^3) ([3]; day 14): 194.57 mm^3 | TUMOR GROWTH (%) ([3]; day 21): 361.18% | Tumor inhibition (%) ([3]; day 21): 53.78% | Tumor volume (mm^3) ([3]; day 21): 250.24 mm^3 | TUMOR GROWTH (%) ([3]; day 28): 519.79% | Tumor inhibition (%) ([3]; day 28): 42.02% | Tumor volume (mm^3) ([3]; day 28): 428.99 mm^3

[(Ac-Amc)^0-Tyr^1, D-Arg^2, Cpa^6, Ala^8, Har^9, Tyr(Me)^10, His^11, Orn^12, Abu^15, His^20, Orn^21, Nle^27, D-Arg^28, Har^29-Ada^30]hGH-RH(1-29)NH2 [Peptide 11497]
Tumor growth after 28 days (%) [4]: 872% | Tumor growth after 46 days (%) [4]: 1658% | Inhibitory effect on PC-3 tumors compared with reference peptide JMR-132 [4]: had a more potent inhibitory effect than reference peptide JMR-132 | Inhibition (%) ([4]; after 28 days): 36.25% | Inhibition (%) ([4]; after 46 days): 50.22%

[(Dca-Amc)^0-Tyr^1, D-Arg^2, Cpa^6, Ala^8, Har^9, Tyr(Me)^10, His^11, Orn^12, Orn^15, His^20, Orn^21, Nle^27, D-Arg^28, Har^29-Ada^30]hGH-RH(1-29)NH2 [Peptide 11521]
Tumor growth after 28 days (%) [4]: 877% | Tumor growth after 46 days (%) [4]: 2427% | Inhibition (%) ([4]; after 28 days): 35.86% | Inhibition (%) ([4]; after 46 days): 27.11%

[Dca^0-Tyr^1, D-Arg^2, Cpa^6, Ala^8, Har^9, Tyr(Me)^10, His^11, Orn^12, Abu^15, Har^20, Orn^21, Nle^27, D-Arg^28, Har^29]hGH-RH(1-29)NH2 [Peptide 11513]
TUMOR GROWTH (%) ([1]; 2 μg/day, day 0 (baseline)): 100% | TUMOR GROWTH (%) ([1]; 2 μg/day, day 7): 212.49% | Tumor inhibition (%) ([1]; 2 μg/day, day 7): 35.86% | TUMOR GROWTH (%) ([1]; 2 μg/day, day 14): 420.81% | Tumor inhibition (%) ([1]; 2 μg/day, day 14): 28.79% | TUMOR GROWTH (%) ([1]; 2 μg/day, day 21): 823.51% | Tumor inhibition (%) ([1]; 2 μg/day, day 21): 30.80% | TUMOR GROWTH (%) ([1]; 2 μg/day, day 28): 1420.09% | Tumor inhibition (%) ([1]; 2 μg/day, day 28): 23.54%

[Nac^0-Tyr^1, D-Arg^2, Cpa^6, Ala^8, Har^9, Tyr(Me)^10, His^11, Orn^12, Abu^15, His^20, Orn^21, Nle^27, D-Arg^28, Har^29-AE2A^30] hGH-RH(1-29)NH2 [Peptide 11433]
Tumor growth after 28 days (%) [4]: 956% | Tumor growth after 46 days (%) [4]: 1890% | Inhibition (%) ([4]; after 28 days): 30.15% | Inhibition (%) ([4]; after 46 days): 43.23%

[Oct^0-Tyr^1, D-Arg^2, Cpa^6, Ala^8, His^9, Tyr(Et)^10, His^11, Orn^12, Abu^15, His^20, Orn^21, Nle^27, D-Arg^28, Har^29-Ada^30]hGH-RH(1-29)NH2 [Peptide 11213]
Tumor growth after 28 days (%) [4]: 651% | Tumor growth after 46 days (%) [4]: 1144% | Inhibitory effect on PC-3 tumors compared with reference peptide JMR-132 [4]: had a more potent inhibitory effect than reference peptide JMR-132 | Inhibition (%) ([4]; after 28 days): 52.41% | Inhibition (%) ([4]; after 46 days): 65.65%

[PhAc^0-Tyr^1, D-Arg^2, (Phe(F)5)^6, Ala^8, Har^9, Tyr(Me)^10, His^11, Orn^12, Abu^15, His^20, Orn^21, Nle^27, D-Arg^28, Har^29-Ada^30]hGH-RH(1-29)NH2 [Peptide 11499]
Tumor growth after 28 days (%) [4]: 782% | Tumor growth after 46 days (%) [4]: 2178% | Inhibition (%) ([4]; after 28 days): 42.86% | Inhibition (%) ([4]; after 46 days): 34.59%

[PhAc^0-Tyr^1, D-Arg^2, Cpa^6, Dip^8, Har^9, Tyr(Me)^10, His^11, Orn^12, Abu^15, His^20, Orn^21, Nle^27, D-Arg^28, Har^29-AE2A^30]hGH-RH(1-29)NH2 [Peptide 11423]
TUMOR GROWTH (%) ([5]; day 1 (baseline)): 100.00% | TUMOR GROWTH (%) ([5]; day 7): 412.37% | Tumor inhibition (%) ([5]; day 7): 22.17% | TUMOR GROWTH (%) ([5]; day 14): 761.10% | Tumor inhibition (%) ([5]; day 14): 44.95% | TUMOR GROWTH (%) ([5]; day 21): 1130.90% | Tumor inhibition (%) ([5]; day 21): 54.20% | TUMOR GROWTH (%) ([5]; day 28): 2687.38% | Tumor inhibition (%) ([5]; day 28): 34.45%
